# Results reported in patent EP4603105A1, “PHARMACEUTICAL COMPOSITION CONTAINING CYCLIC COMPOUND HAVING SELECTIVE KRAS INHIBITORY EFFECT AGAINST HRAS AND NRAS” (CHUGAI SEIYAKU KABUSHIKI KAISHA, priority 2022, dated 2024).
# Like-named read-outs stand apart in the source and are kept apart here. *1 amine or outer side, *2 acyl side, *3 side chain or, on linkers, in order; H or OH if unused. Where a SMILES comes first, the peptide text is derived from it. Bridges are numbered along the chain shown (N, C = ends). [ ]: non-standard residue; d: D form. The star is where a group is joined. hPhe(3,5-F2-4-CF3) = N[C@@H](CCc1cc(F)c(C(F)(F)F)c(F)c1)C(=O)O; hPhe(3-Cl-4-CF3) = N[C@@H](CCc1ccc(C(F)(F)F)c(Cl)c1)C(=O)O; NPrPhe(4-CF3) = CCCN[C@@H](Cc1ccc(C(F)(F)F)cc1)C(=O)O; X41 = CCCN([C@@H](Cc1ccc(OC)cc1)C(=O)[*:2])[*:1]; NMeGly(cPent) = CN[C@H](C(=O)O)C1CCCC1; Ac4c(3,3-F2) = NC1(C(=O)O)CC(F)(F)C1; NMeD = CN[C@@H](CC(=O)O)C(=O)O; NMeL = CN[C@@H](CC(C)C)C(=O)O; Morpholide = C1CN(*)CCO1; NMeA = CN[C@@H](C)C(=O)O; Ac5c = NC1(C(=O)O)CCCC1; Aze = O=C(O)[C@@H]1CCN1; Ac4c = NC1(C(=O)O)CCC1; X11 = CC1(C)CCN(*)C1; Sar = CNCC(=O)O
# What was measured:
# [1] = system: human lung cancer strain NCI-H441; type: cell-based
# In short: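 Proliferation was scored by […] measured after the reagent was added to cultures kept at 37°C in 5% carbon dioxide.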
# [2] = target: GDP-bound NRAS wild-type protein (Homo sapiens, UniProt P01111); experiment: Binding to NRAS by surface plasmon resonance (SPR), KD and KD ratio to KRAS
# Sequence of GDP-bound NRAS wild-type protein (P01111 whole entry): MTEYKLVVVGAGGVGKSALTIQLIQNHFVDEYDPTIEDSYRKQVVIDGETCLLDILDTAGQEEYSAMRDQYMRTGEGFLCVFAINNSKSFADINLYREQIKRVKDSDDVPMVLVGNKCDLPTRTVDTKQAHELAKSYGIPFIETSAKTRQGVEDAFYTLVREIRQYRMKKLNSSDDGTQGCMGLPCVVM
# In short: (§1)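 Compound binding is evaluated by SPR single-cycle kinetics, with concentrations added intermittently from low to high for 75 s each. Target surfaces carry GDP-loaded biotinylated Avi-RAS at about 100–300 RU, regenerated after each cycle; temperature 30°C. A 1:1 binding model gives KD.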
# [3] = target: HRAS wild-type protein (Homo sapiens, UniProt P01112); experiment: Binding to HRAS by surface plasmon resonance (SPR), KD and KD ratio to KRAS
# Sequence of HRAS wild-type protein (P01112 whole entry): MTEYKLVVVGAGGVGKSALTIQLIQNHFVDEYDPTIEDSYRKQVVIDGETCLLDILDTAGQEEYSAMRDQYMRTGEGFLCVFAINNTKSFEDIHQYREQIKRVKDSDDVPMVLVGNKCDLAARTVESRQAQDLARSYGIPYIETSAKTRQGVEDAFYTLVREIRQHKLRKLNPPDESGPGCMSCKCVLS
# In short: as §1
# [4] = ratio of KD for GDP-bound NRAS wild-type protein to KD for KRAS
# [5] = ratio of KD for HRAS wild-type protein to KD for KRAS
# [6] = ratio of the KD value with respect to GDP-bound NRAS wild-type protein to the KD value with respect to KRAS
# [7] = ratio of the KD value with respect to HRAS wild-type protein to the KD value with respect to KRAS
# [8] = ratio of KD value for GDP-bound NRAS wild-type protein to KD value for KRAS (SPR)
# [9] = ratio of KD value for HRAS wild-type protein to KD value for KRAS (SPR)
Compound,IC50 [1] [nM],"NRAS /KRAS [2, 4]","HRAS /KRAS [3, 5]","NRAS /KRAS [2, 6]","HRAS /KRAS [3, 7]","NRAS /KRAS [2, 8]","HRAS /KRAS [3, 9]","IC50 ([1]; NCI-H441 cells, 4 days, CellTiter-Glo, read-out: NCl-H441 IC50) [nM]"
CCC[C@H]1C(=O)N[C@@H]([C@@H](C)CC)C(=O)N(C)CC(=O)N(C)[C@H]2C/C=C\CCN(C2=O)[C@@H](Cc2ccc(C)cc2)C(=O)N(C)CC(=O)N[C@@H](CCc2cc(F)c(C(F)F)c(F)c2)C(=O)N2C[C@H](OCC)C[C@H]2C(=O)NC2(CC(C)(C)C2)C(=O)N(C)[C@@H](C2CCCC2)C(=O)N(C)[C@H](C(=O)N(C)C)CC(=O)N1C [PP2782],59.1,A (a compound having 10 or more and less than 20 is denoted as A),A (a compound having 10 or more and less than 20 is denoted as A),,,,,
CC[C@H](C)[C@@H]1NC(=O)[C@H](C(C)C)N(C)C(=O)C[C@@H](C(=O)N(C)CC)N(C)C(=O)[C@H](C2CCCC2)N(C)C(=O)C2(CC(C)(C)C2)NC(=O)[C@@H]2C[C@H](C)CN2C(=O)[C@H](CCc2ccc(C(F)(F)F)c(OC)c2)NC(=O)CN(C)C(=O)[C@H](Cc2ccc(C(F)(F)F)cc2)N2CC/C=C\C[C@@H](C2=O)N(C)C(=O)CN(C)C1=O [PP2003],11.3,,,A (a compound having 10 or more and less than 20 is denoted as A),B (a compound having 3 or more and less than 10 is denoted as B),,,
CC[C@H](C)[C@@H]1NC(=O)[C@H](CC(F)(F)F)N(C)C(=O)C[C@@H](C(=O)N(C)C)N(C)C(=O)[C@H](C2CCCC2)N(C)C(=O)C2(CC(C)(C)C2)NC(=O)[C@@H]2C[C@@H](F)CN2C(=O)[C@H](CCc2cc(F)c(C(F)(F)F)c(F)c2)NC(=O)CN(C)C(=O)[C@H](Cc2ccc(C(F)(F)F)cc2)N2CC/C=C\C[C@@H](C2=O)N(C)C(=O)CN(C)C1=O [PP1688],1.5,,,,,A (a compound having 10 or more and less than 20 is denoted as A),A (a compound having 10 or more and less than 20 is denoted as A),
CC[C@H](C)[C@@H]1NC(=O)[C@H](C2CC2)N(C)C(=O)C[C@@H](C(=O)N(C)CC)N(C)C(=O)[C@H](C2CCCC2)N(C)C(=O)C2(CCC2)NC(=O)[C@@H]2C[C@H](C)CN2C(=O)[C@H](CCc2ccc(C(F)(F)F)c(OC)c2)NC(=O)CN(C)C(=O)[C@H](Cc2ccc(C(F)(F)F)cc2)N2CC/C=C\C[C@@H](C2=O)N(C)C(=O)CN(C)C1=O [PP2069],27.4,,,AA (a compound having 20 or more is denoted as AA),A (a compound having 10 or more and less than 20 is denoted as A),,,
CCO[C@@H]1C[C@H]2C(=O)NC3(CCC3)C(=O)N(C)[C@@H](C(CC)CC)C(=O)N(C)[C@H](C(=O)N3CCCC3)CC(=O)N(C)[C@H]3CCCCC/C=C/c4ccc(cc4)C[C@@H](C(=O)N(C)CC(=O)N[C@@H](CCc4ccc(Cl)c(Cl)c4)C(=O)N2C1)N1CC/C=C\C[C@@H](C1=O)N(C)C(=O)CN(C)C(=O)[C@H]([C@@H](C)CC)NC3=O [PP3052],27.6,AA (a compound having 20 or more is denoted as AA),A (a compound having 10 or more and less than 20 is denoted as A),,,,,
CCCN1C(=O)CN(C)C(=O)CN(C)C(=O)[C@H]([C@@H](C)CC)NC(=O)[C@H](CC(C)C)N(C)C(=O)C[C@@H](C(=O)N2CCOCC2)N(C)C(=O)[C@H](C2CCCC2)N(C)C(=O)C2(CCCC2)NC(=O)[C@@H]2CCCN2C(=O)[C@H](CCc2ccc(C(F)(F)F)c(Cl)c2)NC(=O)CN(C)C(=O)[C@@H]1Cc1ccc(OC)cc1 [PP0135] ([NMeL]I[Sar][Sar][X41][Sar][hPhe(3-Cl-4-CF3)]P[Ac5c][NMeGly(cPent)][NMeD]-Morpholide; lactam N-11),26.1,B (a compound having 3 or more and less than 10 is denoted as B),C (A compound having a KD ratio of 0.1 or more and less than 3 is denoted as C),,,,,
CCCN1C(=O)[C@@H]2CCN2C(=O)[C@H](C)N(C)C(=O)[C@H]([C@@H](C)CC)NC(=O)[C@H](CC(C)C)N(C)C(=O)C[C@@H](C(=O)N(C)C)NC(=O)[C@H](C2CCCC2)N(C)C(=O)C2(CCC2)NC(=O)[C@@H]2CCCN2C(=O)[C@H](CCc2ccc(C(F)(F)F)c(Cl)c2)NC(=O)CN(C)C(=O)[C@@H]1Cc1ccc(C(F)(F)F)cc1 [PP0380] ([NMeL]I[NMeA][Aze][NPrPhe(4-CF3)][Sar][hPhe(3-Cl-4-CF3)]P[Ac4c][NMeGly(cPent)]D-NMe2; lactam N-11),16.4,C (A compound having a KD ratio of 0.1 or more and less than 3 is denoted as C),B (a compound having 3 or more and less than 10 is denoted as B),,,,,
CCO[C@@H]1C[C@H]2C(=O)NC3(CC(C)(C)C3)C(=O)N(C)[C@@H](C3CCCC3)C(=O)N(C)[C@H](C(=O)N3CCCC3)CC(=O)N(C)[C@H]3CCC/C=C/c4ccc(cc4)C[C@@H](C(=O)N(C)CC(=O)N[C@@H](CCc4cc(F)c(C(F)(F)F)c(F)c4)C(=O)N2C1)N1CC/C=C\C[C@@H](C1=O)N(C)C(=O)CN(C1CC1)C(=O)[C@H]([C@@H](C)CC)NC3=O [PP2583],4.1,A (a compound having 10 or more and less than 20 is denoted as A),A (a compound having 10 or more and less than 20 is denoted as A),,,,,
CCCC[C@H]1C(=O)N[C@@H]([C@@H](C)CC)C(=O)N(C)CC(=O)N(C)[C@H]2C/C=C\CCN(C2=O)[C@@H](Cc2ccc(C)cc2)C(=O)N(C)CC(=O)N[C@@H](CCc2cc(F)c(C(F)(F)F)c(F)c2)C(=O)N2C[C@H](OCC)C[C@H]2C(=O)NC2(CC(C)(C)C2)C(=O)N(C)[C@@H](C2CCCC2)C(=O)N(C)[C@H](C(=O)N(C)CC)CC(=O)N1C [PP2808],13.1,B (a compound having 3 or more and less than 10 is denoted as B),B (a compound having 3 or more and less than 10 is denoted as B),,,,,
CCOC[C@H]1C(=O)N[C@@H]([C@@H](C)CC)C(=O)N(C)CC(=O)N(C)[C@H]2C/C=C\CCN(C2=O)[C@@H](Cc2ccc(C3CC3)cc2)C(=O)N(C)CC(=O)N[C@@H](CCc2ccc(C(F)(F)F)c(OC)c2)C(=O)N2C[C@@H](C)C[C@H]2C(=O)NC2(CC(C)(C)C2)C(=O)N(C)[C@@H](C2CCCC2)C(=O)N(C)[C@H](C(=O)N(C)CC)CC(=O)N1C [PP2700],,A (a compound having 10 or more and less than 20 is denoted as A),B (a compound having 3 or more and less than 10 is denoted as B),,,,,23.1

# Now from value to compound, other results behind:
IC50 [1] [nM],Compound,"NRAS /KRAS [2, 4]","HRAS /KRAS [3, 5]","NRAS /KRAS [2, 6]","HRAS /KRAS [3, 7]","NRAS /KRAS [2, 8]","HRAS /KRAS [3, 9]","IC50 ([1]; NCI-H441 cells, 4 days, CellTiter-Glo, read-out: NCl-H441 IC50) [nM]"
37.5,CCO[C@@H]1C[C@H]2C(=O)NC3(CCC3)C(=O)N(C)[C@@H](C3CCCC3)C(=O)N(C)[C@H](C(=O)N3CCOCC3)CC(=O)N(C)[C@@H](COC)C(=O)N[C@@H]([C@@H](C)CC)C(=O)N(C)CC(=O)N(C)[C@H]3CCCCCN(C3=O)[C@@H](Cc3ccc(C(F)(F)F)cc3)C(=O)N(C)CC(=O)N[C@@H](CCc3ccc(C(F)(F)F)c(F)c3)C(=O)N2C1 [PP0848],B (a compound having 3 or more and less than 10 is denoted as B),B (a compound having 3 or more and less than 10 is denoted as B),,,,,
34.4,CCCN1C(=O)CN(C)C(=O)CN(C)C(=O)[C@H]([C@@H](C)CC)NC(=O)[C@H](CC(C)C)N(C)C(=O)C[C@@H](C(=O)N2CCC(C)(C)C2)N(C)C(=O)[C@H](C2CCCC2)N(C)C(=O)C2(CCCC2)NC(=O)[C@@H]2CCCN2C(=O)[C@H](CCc2ccc(C(F)(F)F)c(Cl)c2)NC(=O)CN(C)C(=O)[C@@H]1Cc1ccc(C(F)(F)F)cc1 [PP0177] ([NMeL]I[Sar][Sar][NPrPhe(4-CF3)][Sar][hPhe(3-Cl-4-CF3)]P[Ac5c][NMeGly(cPent)][NMeD]-X11; lactam N-11),B (a compound having 3 or more and less than 10 is denoted as B),C (A compound having a KD ratio of 0.1 or more and less than 3 is denoted as C),,,,,
5,CCC[C@H]1C(=O)N[C@@H]([C@@H](C)CC)C(=O)N(C)CC(=O)N(C)[C@H]2C/C=C\CCN(C2=O)[C@@H](Cc2ccc(C(F)(F)F)cc2)C(=O)N(C)CC(=O)N[C@@H](CCc2cc(F)c(C(F)(F)F)c(F)c2)C(=O)N2CC(F)(F)C[C@H]2C(=O)NC2(CC(C)(C)C2)C(=O)N(C)[C@@H](C2CCCC2)C(=O)N(C)[C@H](C(=O)N(C)C)CC(=O)N1C [PP1711],,,,,A (a compound having 10 or more and less than 20 is denoted as A),B (a compound having 3 or more and less than 10 is denoted as B),
4.9,CCCN(C)C(=O)[C@@H]1CC(=O)N(C)[C@@H](CC(F)(F)F)C(=O)N[C@@H]([C@@H](C)CC)C(=O)N(C)CC(=O)N(C)[C@H]2C/C=C\CCN(C2=O)[C@@H](Cc2ccc(C(F)(F)F)cc2)C(=O)N(C)CC(=O)N[C@@H](CCc2cc(F)c(C(F)(F)F)c(F)c2)C(=O)N2C[C@H](OCC)C[C@H]2C(=O)NC2(CCC2)C(=O)N(C)[C@@H](C2CCCC2)C(=O)N1C [PP1702],,,,,A (a compound having 10 or more and less than 20 is denoted as A),A (a compound having 10 or more and less than 20 is denoted as A),
3.9,"CCCN1C(=O)CN(C)C(=O)CN(C)C(=O)[C@H]([C@@H](C)CC)NC(=O)[C@H](CC(C)C)N(C)C(=O)C[C@@H](C(=O)N(C)C)N(C)C(=O)[C@H](C2CCCC2)N(C)C(=O)C2(CC(F)(F)C2)NC(=O)[C@@H]2CCCN2C(=O)[C@H](CCc2cc(F)c(C(F)(F)F)c(F)c2)NC(=O)CN(C)C(=O)[C@@H]1Cc1ccc(C(F)(F)F)cc1 [PP0745] ([NMeL]I[Sar][Sar][NPrPhe(4-CF3)][Sar][hPhe(3,5-F2-4-CF3)]P[Ac4c(3,3-F2)][NMeGly(cPent)][NMeD]-NMe2; lactam N-11)",,,B (a compound having 3 or more and less than 10 is denoted as B),C (A compound having a KD ratio of 0.1 or more and less than 3 is denoted as C),,,
